Data as given in article PMC11950731 (Synthetic and Systems Biotechnology, 2025).

How the values were obtained:
PpUGT91AH5 = test: LC-MS glucosyltransferase assay, varied trillin; type: biochemical, Paris polyphylla; conditions: saturating UDP-glucose; assay buffer 50 mM Tris-HCl pH 8.0, 1 mM MgCl2, 37 °C
PpUGT91AH4 = test: LC-MS glucosyltransferase assay, varied trillin; type: biochemical, Paris polyphylla; conditions: saturating UDP-glucose; assay buffer 50 mM Tris-HCl pH 8.0, 1 mM MgCl2, 37 °C

For `C[C@@H]1CC[C@@]2(OC1)O[C@H]1C[C@H]3[C@@H]4CC=C5C[C@@H](O[C@@H]6O[C@H](CO)[C@@H](O)[C@H](O)[C@H]6O)CC[C@]5(C)[C@H]4CC[C@]3(C)[C@H]1[C@@H]2C` [trillin], which Km (PpUGT91AH5) is on record?
Its Km is 7.81 ± 1.2 mM.

What about the Km (PpUGT91AH4) of the same compound?
Its Km is 5.67 ± 0.84 mM.
